Reference: US20100267743A1, “3-(PHENOXYPYRROLIDIN-3-YL-METHYL)HETEROARYL, 3-(PHENYLPYRROLIDIN-3-YLMETHOXY)HETEROARYL, AND 3-(HETEROARYLPYRROLIDIN-3-YLMETHOXY)HETEROARYL COMPOUNDS” (priority 2009, published 2010)

What was measured:
[1] = target: NET (Homo sapiens, UniProt P23975); test: hNET radioligand binding assay (3H-nisoxetine); design: expressed in transfected cells; host or cells: HEK-293; details: hNET membranes (HEK-293), 1.0 nM 3H-nisoxetine; for Ki: read-out: NET pKi (converted)
Procedure, shortened: (§1)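 Membranes came from HEK-293 cells stably expressing hSERT (0.5 μg protein) or hNET (1 μg), with 3H-citalopram or 3H-nisoxetine respectively. Incubation was 60 min at 22° C in Tris buffer with 120 mM NaCl and 5 mM KCl, pH 7.4, followed by filtration and scintillation counting. pKi was derived by Cheng-Prusoff from IC50 and saturation-derived Kd.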

[2] = target: SERT (Homo sapiens, UniProt P31645); test: hSERT radioligand binding assay (3H-citalopram); design: expressed in transfected cells; host or cells: HEK-293; details: hSERT membranes (HEK-293), 1.0 nM 3H-citalopram; for Ki: read-out: SERT pKi (converted)
Procedure, shortened: as §1

Chain of NET (P23975 whole entry): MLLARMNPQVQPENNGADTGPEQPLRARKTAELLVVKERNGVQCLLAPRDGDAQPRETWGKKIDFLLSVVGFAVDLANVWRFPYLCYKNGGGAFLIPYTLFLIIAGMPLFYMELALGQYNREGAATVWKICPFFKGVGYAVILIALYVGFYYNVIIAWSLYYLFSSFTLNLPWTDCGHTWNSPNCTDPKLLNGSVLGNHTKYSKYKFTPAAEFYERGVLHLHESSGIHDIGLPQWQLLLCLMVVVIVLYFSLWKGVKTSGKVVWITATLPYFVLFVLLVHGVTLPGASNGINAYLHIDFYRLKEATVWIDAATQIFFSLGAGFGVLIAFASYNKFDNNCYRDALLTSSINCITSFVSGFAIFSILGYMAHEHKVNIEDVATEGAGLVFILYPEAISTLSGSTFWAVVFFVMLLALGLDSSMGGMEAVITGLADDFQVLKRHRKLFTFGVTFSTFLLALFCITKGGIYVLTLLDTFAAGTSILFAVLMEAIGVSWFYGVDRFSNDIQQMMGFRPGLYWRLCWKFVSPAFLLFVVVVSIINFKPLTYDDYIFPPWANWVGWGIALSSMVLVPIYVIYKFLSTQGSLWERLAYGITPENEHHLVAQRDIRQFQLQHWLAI
Chain of SERT (P31645 whole entry): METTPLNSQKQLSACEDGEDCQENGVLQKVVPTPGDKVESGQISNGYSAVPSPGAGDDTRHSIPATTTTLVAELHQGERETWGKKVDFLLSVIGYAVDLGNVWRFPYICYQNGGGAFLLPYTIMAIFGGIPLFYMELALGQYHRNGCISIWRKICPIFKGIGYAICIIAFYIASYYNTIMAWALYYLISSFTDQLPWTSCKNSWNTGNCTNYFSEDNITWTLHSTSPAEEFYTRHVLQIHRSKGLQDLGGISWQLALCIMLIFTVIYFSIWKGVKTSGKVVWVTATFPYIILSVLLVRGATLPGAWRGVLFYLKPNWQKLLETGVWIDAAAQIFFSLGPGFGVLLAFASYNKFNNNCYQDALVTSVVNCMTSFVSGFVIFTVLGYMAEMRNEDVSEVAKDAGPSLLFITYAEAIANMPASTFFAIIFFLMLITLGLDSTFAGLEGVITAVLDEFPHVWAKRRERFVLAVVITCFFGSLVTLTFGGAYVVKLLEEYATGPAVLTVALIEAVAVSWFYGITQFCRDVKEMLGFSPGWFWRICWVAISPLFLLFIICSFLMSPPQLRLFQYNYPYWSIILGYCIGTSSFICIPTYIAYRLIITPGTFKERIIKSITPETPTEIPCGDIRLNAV

Ki [1]	Ki [2]	SMILES	NET pKi [1]	SERT pKi [2]
–	–	COc1ncccc1O[C@@H](c1ccccc1)[C@H]1CCNC1.O=C(O)C(F)(F)F [15-17]	≧7.0	≧7.0
–	–	Fc1cc(O[C@@H](c2ccccc2)[C@H]2CCNC2)cnc1F.O=C(O)C(F)(F)F [15-21]	≧7.0	≧5.0
≤ 100 nM	≤ 100 nM	Clc1cccc(C(Oc2cccc3ccccc23)C2CCNC2)c1 (stereo not shown) [21-5]	–	–
≤ 10000 nM	≤ 100 nM	Cc1cc(Cl)ccc1O[C@H](c1cnccn1)[C@H]1CCNC1 [10-6]	–	–
–	–	Fc1cnc(O[C@@H](c2ccccc2)[C@H]2CCNC2)c(F)c1C(F)(F)F.O=C(O)C(F)(F)F [14-18]	≧7.0	≧7.0
–	–	COc1cccc(F)c1O[C@@H](c1ncco1)[C@H]1CCNC1.O=C(O)C(F)(F)F [6-41]	≧7.0	≧5.0
≤ 100 nM	≤ 100 nM	Cc1ccc(Cl)c(OC(c2cccnc2)[C@H]2CCNC2)c1Cl (stereo partly drawn) [Example 2-74, 3-[(S)-(2,6-Dichloro-3-methylphenoxy)-pyrrolidin-3-yl-methyl]pyridine]	–	–
–	–	FC(F)(F)c1cc(Cl)ccc1O[C@@H](c1ncco1)[C@H]1CCNC1.O=C(O)C(F)(F)F [6-18]	≧7.0	≧7.0
–	–	Cc1ccccc1O[C@H](c1nccs1)[C@H]1CCNC1 [Example 5-25]	≧7.0	≧7.0
≤ 100 nM	≤ 100 nM	Fc1ccc(F)c(OC(c2nccs2)C2CCNC2)c1Cl [Example 5-16, 2-[((S)-(2-Chloro-3,6-difluorophenoxy)-((S)-pyrrolidin-3-yl-methyl]thiazole]	–	–
–	–	O=C(O)C(F)(F)F.c1ccc2cc(O[C@@H](c3ncco3)[C@H]3CCNC3)ccc2c1 [20-1]	≧7.0	≧7.0
–	–	Clc1cccc(O[C@@H](c2ccccc2)[C@H]2CCNC2)n1.O=C(O)C(F)(F)F [14-9]	≧7.0	≧7.0
–	–	Cc1cc(Cl)ccc1O[C@@H](c1cnccn1)[C@H]1CCNC1.O=C(O)C(F)(F)F [10-5]	≧7.0	≧7.0
–	–	Fc1cc(F)c(F)c(O[C@@H](c2nccs2)[C@H]2CCNC2)c1F [Example 5-3]	≧5.0	≧5.0
≤ 100 nM	≤ 100 nM	COc1cc(Cl)ccc1O[C@@H](c1cncc(F)c1)[C@H]1CCNC1 [Example 1]	–	–
–	–	COC(=O)c1cc(Cl)ccc1O[C@@H](c1ncco1)[C@H]1CCNC1.O=C(O)C(F)(F)F [6-29]	≧7.0	≧7.0
≤ 100 nM	≤ 100 nM	COc1ncccc1O[C@@H](c1ccccc1)C1CCNC1 (stereo partly shown) [15-16]	–	–
≤ 10000 nM	≤ 10000 nM	Cc1cccc(O[C@@H](c2ncco2)[C@H]2CCNC2)c1 [6-46]	–	–
–	–	CCOc1ccccc1O[C@@H](c1ncco1)[C@H]1CCNC1.O=C(O)C(F)(F)F [6-38]	≧7.0	≧5.0
–	–	CCc1cc(F)cc(F)c1O[C@H](c1cncc(F)c1)[C@@H]1CCNC1 [Example 2-57, 3-[(R)-(2-Ethy1-4,6-difluorophenoxy)-(S)-pyrrolidin-3-yl-methyl]-5-fluoropyridine]	≧7.0	≧7.0
≤ 10000 nM	≤ 10000 nM	Fc1ccc(OC(c2ccncc2)[C@H]2CCNC2)c(F)c1 (stereo partly drawn) [Example 3-3, 4-[(S)-(2,4-Difluorophenoxy)-pyrrolidin-3-yl-methyl]pyridine]	–	–
≤ 100 nM	≤ 10000 nM	Cc1ccccc1O[C@@H](c1ncco1)[C@H]1CCNC1 [6-33]	–	–
–	–	Clc1ccc(O[C@@H](c2ncco2)[C@H]2CCNC2)cc1.O=C(O)C(F)(F)F [6-47]	≧7.0	≧7.0
–	–	Clc1ccc(O[C@H](c2ccccc2)[C@@H]2CCNC2)nc1.O=C(O)C(F)(F)F [14-27]	≧7.0	≧7.0
≤ 100 nM	≤ 100 nM	Clc1cc(Cl)cc(OC(c2nccs2)C2CCNC2)c1 [Example 5-26, 2-[(R)-(3,5-Dichlorophenoxy)-((S)-pyrrolidin-3-yl-methyl]thiazole]	–	–
–	–	Cc1ccc(OC(c2ccccc2)C2CCNC2)cn1 (stereo not shown) [15-28]	≧5.0	≧7.0
–	–	COc1cc(Cl)ccc1O[C@@H](c1ncco1)[C@H]1CCNC1 [6-39]	≧7.0	≧7.0

Ki [1]	Ki [2]	SMILES	NET pKi [1]	SERT pKi [2]
–	–	Fc1cccc(O[C@@H](c2ccccc2)[C@H]2CCNC2)n1.O=C(O)C(F)(F)F [14-10]	≧7.0	≧5.0
≤ 10000 nM	≤ 100 nM	Fc1cc(F)c(Cl)c(O[C@H](c2cncc(Cl)c2)[C@H]2CCNC2)c1Cl [Example 2-4, 3-Chloro-5-[(S)-(2,6-dichloro-3,5-difluorophenoxy)-(S)-pyrrolidin-3-yl-methyl]-pyridine]	–	–
–	–	COc1ccccc1OC(c1cncnc1)C1CCNC1 (stereo not shown) [12-4]	≧7.0	≧5.0
–	–	Fc1cc(F)c(Cl)c(O[C@@H](c2ncco2)[C@H]2CCNC2)c1Cl.O=C(O)C(F)(F)F [6-9]	≧7.0	≧5.0
≤ 100 nM	≤ 100 nM	Fc1cc(F)c(Cl)c(OC(c2nccs2)C2CCNC2)c1Cl [Example 5-9, 2-[((S)-(2,6-Dichloro-3,5-difluorophenoxy)-((S)-pyrrolidin-3-yl-methyl]thiazole]	–	–
≤ 100 nM	≤ 100 nM	Fc1ccc(O[C@H](c2cccnc2)[C@H]2CCNC2)c(F)c1 [Example 2-71, 3-[(S)-(2,4-Difluorophenoxy)-(S)-pyrrolidin-3-yl-methyl]pyridine]	–	–
≤ 10000 nM	≤ 100 nM	Clc1ccc(O[C@@H](c2ccccc2)C2CCNC2)cn1 (stereo partly shown) [15-22]	–	–
–	–	Fc1cc(Cl)ccc1O[C@@H](c1ncco1)[C@H]1CCNC1.O=C(O)C(F)(F)F [6-31]	≧7.0	≧7.0
–	–	O=C(O)C(F)(F)F.c1ccc([C@H](Oc2cccnc2OC2CCCC2)[C@H]2CCNC2)cc1 [15-13]	≧7.0	≧7.0
–	–	COc1cc(Cl)c(F)cc1O[C@@H](c1ncco1)[C@H]1CCNC1.O=C(O)C(F)(F)F [6-40]	≧7.0	≧7.0
–	–	Cc1cc(Cl)ccc1O[C@@H](c1cncnc1)[C@H]1CCNC1.O=C(O)C(F)(F)F [12-3]	≧7.0	≧7.0
≤ 10000 nM	≤ 10000 nM	Fc1cc(F)c(O[C@@H](c2ccncc2)[C@H]2CCNC2)c(F)c1 [Example 3-1, 4-[(R)-(S)-Pyrrolidin-3-yl-(2,4,6-trifluorophenoxy)methyl]pyridine]	–	–
≤ 10000 nM	≤ 10000 nM	COc1ccccc1O[C@H](c1cnccn1)[C@H]1CCNC1 [10-8]	–	–
–	–	FC(F)(F)COc1ncccc1O[C@@H](c1ccccc1)[C@H]1CCNC1.O=C(O)C(F)(F)F [15-11]	≧7.0	≧7.0
–	–	Fc1c(Cl)ccc(O[C@@H](c2ncco2)[C@H]2CCNC2)c1Cl.O=C(O)C(F)(F)F [6-4]	≧7.0	≧7.0
≤ 100 nM	≤ 100 nM	Cc1ccc(F)c(OC(c2nccs2)C2CCNC2)c1Cl [Example 5-18, 2-[(R)-(2-Chloro-6-fluoro-3-methylphenoxy)-((S)-pyrrolidin-3-yl-methyl]thiazole]	–	–
–	–	FC(F)(F)c1cccnc1O[C@@H](c1ccccc1)[C@H]1CCNC1.O=C(O)C(F)(F)F [14-34]	≧5.0	≧7.0
–	–	Cc1cc(Cl)c(O[C@H](c2nccs2)[C@H]2CCNC2)c(Cl)c1 [Example 5-14]	≧5.0	≧7.0
–	–	Cc1cc(Cl)c(O[C@@H](c2ncco2)[C@H]2CCNC2)cc1F.O=C(O)C(F)(F)F [6-24]	≧7.0	≧7.0
–	–	Cc1c(F)c(F)nc(O[C@@H](c2ccccc2)[C@H]2CCNC2)c1F.O=C(O)C(F)(F)F [14-4]	≧5.0	≧7.0
–	–	CCOc1ncccc1O[C@@H](c1ccccc1)[C@H]1CCNC1.O=C(O)C(F)(F)F [15-20]	≧7.0	≧7.0
≤ 10000 nM	≤ 100 nM	c1ccc(C(Oc2cccnc2)C2CCNC2)cc1 (stereo not shown) [15-32]	–	–
≤ 100 nM	≤ 100 nM	Fc1cncc([C@H](Oc2c(F)cc(F)cc2F)[C@H]2CCNC2)c1 [Example 2-35, 3-Fluoro-5-[(R)-(S)-pyrrolidin-3-yl-(2,4,6-trifluorophenoxy)-methyl]pyridine]	–	–
≤ 10000 nM	≤ 10000 nM	Fc1cc(Cl)c(OC(c2nccs2)C2CCNC2)c(Cl)c1 [Example 5-10, 2-[(R)-(2,6-Dichloro-4-fluorophenoxy)-((S)-pyrrolidin-3-yl-methyl]thiazole]	–	–
–	–	O=C(O)C(F)(F)F.c1ccc2c(O[C@@H](c3ncco3)[C@H]3CCNC3)cccc2c1 [19-3]	≧7.0	≧7.0
–	–	Clc1cccc(Cl)c1O[C@@H](c1ncco1)[C@H]1CCNC1.O=C(O)C(F)(F)F [6-8]	≧7.0	≧7.0
≤ 100 nM	≤ 100 nM	Clc1cc(Cl)cc(OC(c2ccoc2)C2CCNC2)c1 [Example 9-1, (S)-3-[(R)-(3,5-Dichlorophenoxy)-furan-3-yl-methyl]pyrrolidione]	–	–

SMILES	Ki [1]	Ki [2]	NET pKi [1]	SERT pKi [2]
Cc1cc(Cl)c(OC(c2nccs2)C2CCNC2)c(Cl)c1 [Example 5-13, 2-[(R)-(2,6-Dichloro-4-methylphenoxy)-((S)-pyrrolidin-3-yl-methyl]thiazole]	≤ 10000 nM	≤ 10000 nM	–	–
Fc1cc(F)c(OC(c2nccs2)C2CCNC2)c(F)c1 [Example 5-7, 2-[((S)-((S)-Pyrrolidin-3-yl-(2,4,6-trifluorophenoxy)methyl]thiazole]	≤ 100 nM	≤ 100 nM	–	–
